Values of other authors in US20030212034A1, “Method of treatment of obesity and paralyzed muscle and ergogenic aids” (priority 2002, published 2003).

Tested on: AMPK
Conditions: analogues of 5′-AMP; Hardie & Carling 1997; cited from earlier work

Row | SMILES | potency of AMPK activation in vitro
1 | Nc1ncnc2c([C@@H]3O[C@H](COP(=O)(O)O)[C@@H](O)[C@H]3O)[nH]nc12 [Formycin A 5′-monophosphate] | less potently
2 | NC(=O)c1ncn([C@@H]2O[C@H](COP(=O)(O)O)[C@@H](O)[C@H]2O)c1N [ZMP] | less potently
3 | Nc1ncnc2c1ncn2[C@@H]1O[C@H](COP(N)(=O)O)[C@@H](O)[C@H]1O [adenosine 5′-phosphoramidate] | more potently
4 | Nc1ncnc2c1ncn2[C@@H]1O[C@H](COP(O)(O)=S)[C@@H](O)[C@H]1O [adenosine-5′-thiomonophosphate] | more potently
